The supplement of paper PMC11061612

Experiments:
Carboplatin = compound: C1CC(C1)(C(=O)[O-])C(=O)[O-].N.N.[Pt+2] [Carboplatin]; conditions: max 10 µM
Method in brief: (§1)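 Viability was measured with CellTiter-Glo 2.0 luminescence after 72 hours of dosing at a final DMSO of typically 0.2%, and scaled between blank-well and DMSO-well means. Beforehand, cancer cell lines sat 24 hours at 37°C and 5% CO2 in 1536-well plates in 7.5 μl DMEM/F12 or RPMI with 10% FBS. A non-linear mixed effects model fitted two-parameter logistic curves to the dose responses. The single-agent IC50 comes from these fits.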

AZD5363 = compound: C1CN(CCC1(C(=O)N[C@@H](CCO)C2=CC=C(C=C2)Cl)N)C3=NC=NC4=C3C=CN4 [AZD5363]; conditions: max 10 µM
Method in brief: as §1

AZD1775 = compound: C=CCn1c(=O)c2cnc(Nc3ccc(N4CCN(C)CC4)cc3)nc2n1-c1cccc(C(C)(C)O)n1 [AZD1775]; conditions: max 3 µM
Method in brief: as §1

Trametinib = compound: CC(=O)Nc1cccc(-n2c(=O)n(C3CC3)c(=O)c3c(Nc4ccc(I)cc4F)n(C)c(=O)c(C)c32)c1 [Trametinib]; conditions: max 1 µM
Method in brief: as §1

Paclitaxel = compound: CC(=O)O[C@H]1C(=O)[C@@]2(C)[C@H]([C@H](OC(=O)c3ccccc3)[C@]3(O)C[C@H](OC(=O)[C@H](O)[C@@H](NC(=O)c4ccccc4)c4ccccc4)C(C)=C1C3(C)C)[C@]1(OC(C)=O)CO[C@@H]1C[C@@H]2O [Paclitaxel]; conditions: max 3 µM
Method in brief: as §1

Palbociclib = compound: CC(=O)c1c(C)c2cnc(Nc3ccc(N4CCNCC4)cn3)nc2n(C2CCCC2)c1=O [Palbociclib]; conditions: max 10 µM
Method in brief: as §1

AZD1390 = compound: CC(C)n1c(=O)n(C)c2cnc3cc(F)c(-c4ccc(OCCCN5CCCCC5)nc4)cc3c21 [AZD1390]; conditions: max 0.3 µM
Method in brief: as §1

Venetoclax = compound: CC1(C)CCC(CN2CCN(c3ccc(C(=O)NS(=O)(=O)c4ccc(NCC5CCOCC5)c([N+](=O)[O-])c4)c(Oc4cnc5[nH]ccc5c4)c3)CC2)=C(c2ccc(Cl)cc2)C1 [Venetoclax]; conditions: max 1 µM
Method in brief: as §1

Dasatinib = compound: CC1=C(C(=CC=C1)Cl)NC(=O)C2=CN=C(S2)NC3=CC(=NC(=N3)C)N4CCN(CC4)CCO [Dasatinib]; conditions: max 2 µM
Method in brief: as §1

SG3199 = compound: CC1=CN2[C@@H](C1)C=NC3=CC(=C(C=C3C2=O)OC)OCCCCCOC4=C(C=C5C(=C4)N=C[C@@H]6CC(=CN6C5=O)C)OC [SG3199]; conditions: max 0.001 µM
Method in brief: as §1

AZD2811 = compound: CCN(CCO)CCCOc1ccc2c(Nc3cc(CC(=O)Nc4cccc(F)c4)[nH]n3)ncnc2c1 [AZD2811]; conditions: max 1 µM
Method in brief: as §1

SN-38 = compound: CCc1c2c(nc3ccc(O)cc13)-c1cc3c(c(=O)n1C2)COC(=O)[C@]3(O)CC [SN-38]; conditions: max 0.3 µM
Method in brief: as §1

AZD0156 = compound: CN(C)CCCOc1ccc(-c2ccc3ncc4c(c3c2)n(C2CCOCC2)c(=O)n4C)cn1 [AZD0156]; conditions: max 3 µM
Method in brief: as §1

AZD4320 = compound: CN(CC[C@H](CSC1=CC=CC=C1)NC2=C(C=C(C=C2)S(=O)(=O)NC(=O)C3=CC=C(C=C3)N4CCC(CC4)[C@H](C5=CC=CC=C5C6=CC=C(C=C6)Cl)O)S(=O)(=O)C(F)(F)F)CCO [AZD4320]; conditions: max 1 µM
Method in brief: as §1

Alisertib = compound: COc1cc(Nc2ncc3c(n2)-c2ccc(Cl)cc2C(c2c(F)cccc2OC)=NC3)ccc1C(=O)O [Alisertib]; conditions: max 10 µM
Method in brief: as §1

Etoposide = compound: COc1cc([C@@H]2c3cc4c(cc3[C@@H](O[C@@H]3O[C@@H]5CO[C@@H](C)O[C@H]5[C@H](O)[C@H]3O)[C@H]3COC(=O)[C@H]23)OCO4)cc(OC)c1O [Etoposide]; conditions: max 10 µM
Method in brief: as §1

Gefitinib = compound: COc1cc2ncnc(Nc3ccc(F)c(Cl)c3)c2cc1OCCCN1CCOCC1 [Gefitinib]; conditions: max 10 µM
Method in brief: as §1

Prexasertib = compound: COc1cccc(OCCCN)c1-c1cc(Nc2cnc(C#N)cn2)n[nH]1 [Prexasertib]; conditions: max 1 µM
Method in brief: as §1

Doxorubicin = compound: COc1cccc2c1C(=O)c1c(O)c3c(c(O)c1C2=O)C[C@@](O)(C(=O)CO)C[C@@H]3O[C@H]1C[C@H](N)[C@H](O)[C@H](C)O1 [Doxorubicin]; conditions: max 1 µM
Method in brief: as §1

AZD5153 = compound: COc1nnc2ccc(N3CCC(c4ccc(OCCN5CCN(C)C(=O)[C@H]5C)cc4)CC3)nn12 [AZD5153]; conditions: max 1 µM
Method in brief: as §1

Lapatinib = compound: CS(=O)(=O)CCNCc1ccc(-c2ccc3ncnc(Nc4ccc(OCc5cccc(F)c5)c(Cl)c4)c3c2)o1 [Lapatinib]; conditions: max 10 µM
Method in brief: as §1

AZD8186 = compound: C[C@@H](Nc1cc(F)cc(F)c1)c1cc(C(=O)N(C)C)cc2c(=O)cc(N3CCOCC3)oc12 [AZD8186]; conditions: max 10 µM
Method in brief: as §1

Crizotinib = compound: C[C@@H](Oc1cc(-c2cnn(C3CCNCC3)c2)cnc1N)c1c(Cl)ccc(F)c1Cl [Crizotinib]; conditions: max 10 µM
Method in brief: as §1

Savolitinib = compound: C[C@@H](c1ccc2nccn2c1)n1nnc2ncc(-c3cnn(C)c3)nc21 [Savolitinib]; conditions: max 1 µM
Method in brief: as §1

AZD6738 = compound: C[C@@H]1COCCN1C2=NC(=NC(=C2)C3(CC3)[S@](=N)(=O)C)C4=C5C=CNC5=NC=C4 [AZD6738]; conditions: max 10 µM
Method in brief: as §1

AZD5991 = compound: Cc1c2c(nn1C)CSCc1cc(n(C)n1)CSc1cc(c3ccccc3c1)OCCCc1c(C(=O)O)n(C)c3c-2c(Cl)ccc13 [AZD5991]; conditions: max 1 µM
Method in brief: as §1

AZD7648 = compound: Cc1cc2ncnn2cc1Nc1ncc2c(n1)n(C1CCOCC1)c(=O)n2C [AZD7648]; conditions: max 10 µM
Method in brief: as §1

Taselisib = compound: Cc1nc(-c2cn3c(n2)-c2ccc(-c4cnn(C(C)(C)C(N)=O)c4)cc2OCC3)n(C(C)C)n1 [Taselisib]; conditions: max 10 µM
Method in brief: as §1

Selumetinib = compound: Cn1cnc2c(F)c(Nc3ccc(Br)cc3Cl)c(C(=O)NOCCO)cc21 [Selumetinib]; conditions: max 10 µM
Method in brief: as §1

SRA737 = compound: N#Cc1cnc(Nc2cc(NC[C@H]3CNCCO3)c(C(F)(F)F)cn2)cn1 [SRA737]; conditions: max 10 µM
Method in brief: as §1

MK-2206 = compound: NC1(c2ccc(-c3nc4ccn5c(=O)[nH]nc5c4cc3-c3ccccc3)cc2)CCC1 [MK-2206]; conditions: max 10 µM
Method in brief: as §1

Gemcitabine = compound: Nc1ccn([C@@H]2O[C@H](CO)[C@@H](O)C2(F)F)c(=O)n1 [Gemcitabine]; conditions: max 0.3 µM
Method in brief: as §1

[1] = compound: O=C(Nc1ccc2[nH]nc(-c3ccncc3)c2c1)[C@@H]1CCN(CC(=O)N2CCN(c3ccc(-c4ncccn4)cc3)CC2)C1; conditions: max 5 µM
Method in brief: as §1

Olaparib = compound: O=C(c1cc(Cc2n[nH]c(=O)c3ccccc23)ccc1F)N1CCN(C(=O)C2CC2)CC1 [Olaparib]; conditions: max 10 µM
Method in brief: as §1

5-Fluorouracil = compound: O=c1[nH]cc(F)c(=O)[nH]1 [5-Fluorouracil]; conditions: max 20 µM
Method in brief: as §1

Cell Line	IC50, cell viability 72 h (Carboplatin) [nM]	IC50, cell viability 72 h (AZD5363) [nM]	IC50, cell viability 72 h (AZD1775) [nM]	IC50, cell viability 72 h (Trametinib) [nM]	IC50, cell viability 72 h (Paclitaxel) [nM]	IC50, cell viability 72 h (Palbociclib) [nM]	IC50, cell viability 72 h (AZD1390) [nM]	IC50, cell viability 72 h (Venetoclax) [nM]	IC50, cell viability 72 h (Dasatinib) [nM]	IC50, cell viability 72 h (SG3199) [nM]	IC50, cell viability 72 h (AZD2811) [nM]	IC50, cell viability 72 h (SN-38) [nM]	IC50, cell viability 72 h (AZD0156) [nM]	IC50, cell viability 72 h (AZD4320) [nM]	IC50, cell viability 72 h (Alisertib) [nM]	IC50, cell viability 72 h (Etoposide) [nM]	IC50, cell viability 72 h (Gefitinib) [nM]	IC50, cell viability 72 h (Prexasertib) [nM]	IC50, cell viability 72 h (Doxorubicin) [nM]	IC50, cell viability 72 h (AZD5153) [nM]	IC50, cell viability 72 h (Lapatinib) [nM]	IC50, cell viability 72 h (AZD8186) [nM]	IC50, cell viability 72 h (Crizotinib) [nM]	IC50, cell viability 72 h (Savolitinib) [nM]	IC50, cell viability 72 h (AZD6738) [nM]	IC50, cell viability 72 h (AZD5991) [nM]	IC50, cell viability 72 h (AZD7648) [nM]	IC50, cell viability 72 h (Taselisib) [nM]	IC50, cell viability 72 h (Selumetinib) [nM]	IC50, cell viability 72 h (SRA737) [nM]	IC50, cell viability 72 h (MK-2206) [nM]	IC50, cell viability 72 h (Gemcitabine) [nM]	IC50, cell viability 72 h [1] [nM]	IC50, cell viability 72 h (Olaparib) [nM]	IC50, cell viability 72 h (5-Fluorouracil) [nM]
MDA-MB-231 (Breast Carcinoma)	> 10000	> 10000	> 3000	204	456	> 10000	> 300	> 1000	1900	> 1	> 1000	109	> 3000	> 1000	> 10000	> 10000	> 10000	173	592	374	> 10000	> 10000	> 10000	> 1000	9530	> 1000	> 10000	> 10000	9410	> 10000	> 10000	184	1910	> 10000	> 20000
ES7 (Ewing's Sarcoma)	> 10000	> 10000	1070	> 1000	3.3	3870	> 300	> 1000	> 2000	> 1	25.4	1.13	> 3000	204	249	257	> 10000	33	38.8	289	> 10000	2000	3360	> 1000	2440	861	> 10000	3020	> 10000	7440	7750	6.44	> 5000	3820	12300
OCI-AML2 (Acute Myeloid Leukemia)	> 10000	7580	358	< 1	4.45	3170	> 300	7.92	> 2000	> 1	341	4.7	> 3000	6.33	1340	503	> 10000	12.4	12.3	43	> 10000	> 10000	2780	> 1000	965	193	> 10000	> 10000	36.6	1170	> 10000	7.97	51.5	6690	1200
SW1088 (Low Grade Glioma)	> 10000	6480	2040	> 1000	29.1	> 10000	> 300	> 1000	283	> 1	> 1000	> 300	> 3000	> 1000	807	> 10000	> 10000	129	> 1000	> 1000	> 10000	1740	> 10000	> 1000	9510	> 1000	> 10000	4280	> 10000	> 10000	> 10000	> 300	> 5000	> 10000	> 20000
SW1783 (Low Grade Glioma)	> 10000	> 10000	1410	> 1000	407	> 10000	> 300	> 1000	> 2000	> 1	> 1000	45.2	> 3000	> 1000	8540	> 10000	> 10000	> 1000	> 1000	> 1000	> 10000	8000	> 10000	> 1000	> 10000	> 1000	> 10000	5980	> 10000	> 10000	> 10000	121	> 5000	> 10000	> 20000
